Data: patent US20140051661A1, “NOVEL LIPOGENIC INHIBITORS AND USES THEREOF” (The Texas A&M University System, priority 2011, published 2014)

Columns and labels:
[1] = system: fatty acid synthase (FAS) mRNA; experiment: FAS mRNA levels in HepG2 cells by quantitative RT-PCR; assay type: cell-based, human; conditions: 30 μM (0.03 mM) compound, 6 hours, qRT-PCR
Method: (§1) HepG2, HEK293 cells, and MEFs were cultured at 37° C. and 5% CO2 in Dulbecco's modified Eagle's medium (DMEM; Sigma), supplemented with […] of penicillin-streptomycin (GIBCO-BRL), 10% (or otherwise indicated) fetal bovine serum (Hyclone), and 20 mM Glutamine.
(§2) Total RNA was extracted from cells with Trizol (Invitrogen, Carlsbad, Calif.) and quantified with an Agilent 2100 Bioanalyzer (Agilent Technologies, Santa Clara, Calif.). For mRNA quantification, 2 ug of RNA was converted to cDNA with a High Capacity cDNA Reverse Transcription kit (Applied Biosystems, Foster City, Calif.), and transcript levels of relevant genes were determined by real-time, quantitative PCR with an ABI 7300 Real Time PCR machine according to the manufacturers instructions.
(§3) HepG2 and FAO cells as well as primary rat hepatocytes were cultured at 37° C. and 5% CO2 in Dulbecco's modified Eagle's medium (DMEM; Sigma, St. Louis, Mo.), supplemented with […] of penicillin-streptomycin (P/S, GIBCO-BRL), 10% fetal bovine serum (FBS, Hyclone) and 20 mM glutamine. Primary rat hepatocytes were isolated using a method as described previously (20), and plated onto collagen-coated 6-cm dishes (3×10^6 cell/dish) in DMEM containing 10% FBS; […] P/S, 20 mM glutamine, 100 nM insulin and 1 μM dexamethasone. After 4 hours of culture, non-adherent cells were washed away with 1×PBS. The remaining hepatocytes were cultured or treated in regular DMEM medium.
(§4) Total RNA was extracted from cells with Trizol (Invitrogen, Life Technologies, Carlsbad, Calif.) and quantified with an Agilent 2100 Bioanalyzer. For mRNA quantification, 2 μg of RNA was converted to cDNA with a High Capacity cDNA Reverse. Transcription kit (Applied Biosystems, Foster City, Calif.), and transcript levels of relevant genes were determined by real-time, quantitative PCR with an ABI 7300 Real Time PCR machine according to the manufacturer's instructions. (PCR primer information is available upon request)

[2] = system: HMG-CoA reductase (HMGCR) mRNA; experiment: HMG-CoA reductase mRNA levels in HepG2 cells by quantitative RT-PCR; assay type: cell-based, human; conditions: 6 hours; for HMG-CoA reductase mRNA levels: 0.03 mM compound
Method: as §1, §2, §3, §4

[3] = system: HepG2 cells; experiment: Cytotoxicity in HepG2 cells; assay type: cell-based, human; conditions: data not shown
[4] = system: FAO cells; experiment: Cholesterol synthesis rate in FAO cells (deuterium enrichment, GC/MS); assay type: cell-based, rat; conditions: 20 μM, 12 hours, 100 nM insulin
Method: as §3, with “medium. Fatty acids and cholesterol synthesis rate was, determined using the deuterium enrichment method followed by GC/MS analysis. Briefly, cells were cultured in regular DMEM medium containing 10% 2H2O for 18 hours. Fatty acids and cholesterol were purified by extraction with organic solvents chloroform/methanol and quantitatively measured by GC/MS. The synthesis rates were presented as the percentage of ^2H-containing palmitate or cholesterol in total amount of palmitate or cholesterol.” for “medium.”

[5] = system: FAS mRNA; experiment: Hepatic FAS mRNA in HFD-fed mice by qRT-PCR; assay type: in vivo, C57BL/6J mice; conditions: 0.3 mg/g body weight, 1 week, osmotic pumps
Method: (§5) Male C57BI/6J mice were purchased from The Jackson Laboratory at 8 weeks of age and were rendered insulin resistant by feeding an HFD (60% kcal from fat; D12492, Research Diets) for 4 weeks. Then the treatment with BF-102 or BF175 was performed for 1 week (osmotic pumps) or several weeks (in HFD).
as §4

[6] = system: FAO cells; experiment: Palmitate synthesis rate in FAO cells (deuterium enrichment, GC/MS); assay type: cell-based, rat; conditions: 20 μM, 12 hours, 100 nM insulin
Method: as §3, with “medium. Fatty acids and cholesterol synthesis rate was, determined using the deuterium enrichment method followed by GC/MS analysis. Briefly, cells were cultured in regular DMEM medium containing 10% 2H2O for 18 hours. Fatty acids and cholesterol were purified by extraction with organic solvents chloroform/methanol and quantitatively measured by GC/MS. The synthesis rates were presented as the percentage of ^2H-containing palmitate or cholesterol in total amount of palmitate or cholesterol.” for “medium.”

[7] = system: HepG2 cells; experiment: Cholesterol synthesis in HepG2 cells (deuterated water GC/MS); assay type: cell-based, human; conditions: 20 μM, 12 hours
Method: (§6) Quantitative measurement of fatty acids and cholesterol synthesis Fatty acids and cholesterol synthesis rate was determined using the deuterated water—GC/MS method as described previously.

[8] = system: HepG2 cells; experiment: Palmitate synthesis in HepG2 cells (deuterated water GC/MS); assay type: cell-based, human; conditions: HepG2 cells as printed
Method: as §6

[9] = system: 293 cells; experiment: Cytotoxicity in 293 cells; assay type: cell-based; conditions: 0.1 mM BF-102; data not shown
[10] = system: HMGCR mRNA; experiment: Hepatic HMGCR mRNA in HFD-fed mice by qRT-PCR; assay type: in vivo, C57BL/6J mice; conditions: 0.3 mg/g body weight, 1 week, osmotic pumps
Method: as §5, §4

[11] = Toxic responses in mice under standard chow, osmotic pumps; assay type: in vivo; conditions: one week, total of 0.6 mg/g body weight by osmotic pumps

| SMILES | FAS mRNA levels [1] | HMG-CoA reductase mRNA levels [2] | cytotoxicity in HepG2 cells ([3]; 0.1 mM BF-102) | toxicity to HepG2 cells ([3]; at the doses used) | synthesis rate of cholesterol [4] | hepatic FAS mRNA levels [5] | synthesis rate of palmitate [6] | FAS mRNA levels ([1]; listed as BF-02) | cholesterol synthesis [7] | palmitate synthesis [8] | cytotoxicity in 293 cells [9] | reduction of hepatic mRNA levels of HMGCR vs DMSO controls [10] [fold] | mRNA levels of HMGCR, dose dependence ([2]; indicated concentrations) | toxic responses [11] |
| --- | --- | --- | --- | --- | --- | --- | --- | --- | --- | --- | --- | --- | --- | --- |
| CC1(C)OB(c2ccc(C=Cc3cc(Cl)cc(Cl)c3)cc2)OC1(C)C [MD131, 3,5-dichloro-4/-(4,4,5,5-Tetramethyl-1,3,2-dioxaborolan-2-yl)stilbene] | strong inhibition | strong inhibition | – | – | – | – | – | – | – | – | – | – | – | – |
| CC1(C)OB(c2ccc(C=Cc3ccc(O)cc3)cc2)OC1(C)C [BF-102, 4-{2-[4-(4,4,5,5-Tetramethyl-[1,3,2]dioxaborolan-2-yl)-phenyl]-vinyl}-phenol] | strong inhibition | strong inhibition | no significant cytotoxicity | not toxic | dramatically decrease | significantly down regulated | significantly decrease | significant decrease | inhibits | inhibits | no significant cytotoxicity | ~5 | dose-dependently decrease | no apparent toxic responses |
